Three compounds from patent publication US20120142621A1 (priority 2010, published 2012) can be followed below.

In one data set the test system is Interleukin-6 (IL-6). Kind of data set: Serum IL-6 by ELISA 3 hrs after CLP. The data set is classed as in vivo, rat. The following applies: natural mixture versus free acid form, FIG. 10. The procedure: Serum samples were obtained from rats (N=5 animals/group) 3 hrs. after (CLP) to establish polymicrobial sepsis, and intravenous injection of saline (control), sophorolipids-natural mixture (SL) or Glyco 23. Serum concentrations of Interleukin-6 (IL-6) were determined using commercial ELISA tests according to manufacturer's instructions. Results were evaluated for statistical significance using ANOVA.
(In general: An ELISA detects its analyte on a solid surface through an enzyme-linked reagent.)

For data set [1], the system named is septic peritonitis via CLP. The data set is described as follows: Survival, WBC and blood culture at 3 hours and 24 hours post insult (CLP). Type of data set: in vivo, rat. The following applies: 5 mg/kg IV at end of surgery, n=6/group; for Survival 24 Hs. post insult: % printed only over the 3 hours column. The procedure:
Survival at 3 hours and 24 hours post insult. […] Doses were given at the end of the surgery, and animals were followed for 24 hours (Table 1)

Data set [2] concerns LPS-induced immunologically relevant genes in mouse macrophages. Kind of data set: Microarray analysis of macrophages cultured with LPS +/- Glyco 23. The following applies: Affymetrix Murine Genome Array U74Av2; LPS maximum set as 100%. The data set is classed as cell-based. The procedure: The maximum level of each gene expression attained in the presence of LPS was set as 100%. […] The analysis was performed using the Affymetrix GeneChip® Murine Genome Array U74Av2 probe array.

Another data set concerns the target T1, TLR4 (Mus musculus, UniProt Q9QUK6).
T1 construct: endogenous in cells; host or cells: RAW264.7 macrophages
T1 sequence (Q9QUK6 26-835): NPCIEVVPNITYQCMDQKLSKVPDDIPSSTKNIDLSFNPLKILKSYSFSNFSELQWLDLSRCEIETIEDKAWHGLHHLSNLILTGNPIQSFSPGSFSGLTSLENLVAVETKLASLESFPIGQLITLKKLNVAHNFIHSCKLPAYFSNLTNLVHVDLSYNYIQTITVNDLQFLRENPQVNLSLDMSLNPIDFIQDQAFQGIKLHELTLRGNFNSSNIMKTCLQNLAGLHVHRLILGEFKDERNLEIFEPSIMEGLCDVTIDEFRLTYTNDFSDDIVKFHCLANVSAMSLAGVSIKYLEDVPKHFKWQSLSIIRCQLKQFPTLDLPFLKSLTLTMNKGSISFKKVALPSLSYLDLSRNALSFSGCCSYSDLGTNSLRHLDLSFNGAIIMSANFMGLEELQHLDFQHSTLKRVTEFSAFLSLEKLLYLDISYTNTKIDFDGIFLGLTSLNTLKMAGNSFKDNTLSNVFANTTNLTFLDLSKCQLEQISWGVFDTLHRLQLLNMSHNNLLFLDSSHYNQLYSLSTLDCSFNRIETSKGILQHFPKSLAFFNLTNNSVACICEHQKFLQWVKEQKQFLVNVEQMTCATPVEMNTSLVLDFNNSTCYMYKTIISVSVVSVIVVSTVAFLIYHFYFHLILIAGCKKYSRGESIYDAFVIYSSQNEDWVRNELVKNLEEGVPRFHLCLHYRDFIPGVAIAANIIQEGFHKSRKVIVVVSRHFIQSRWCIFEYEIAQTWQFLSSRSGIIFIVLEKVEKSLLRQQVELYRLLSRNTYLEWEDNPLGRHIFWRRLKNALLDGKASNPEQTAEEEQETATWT
Kind of data set: Macrophage surface expression by antibody staining: TLR4. The data set is classed as cell-based. The conditions noted are these: RAW264.7 macrophages, 10 μg/ml, 30 min. The procedure:
(§1) Effects of Glyco 23 on TLR pathway: We studied expression of macrophage CD14 and TLR4 in an in vitro model system using cultured macrophages to relate Glyco 23 mechanism of action to events upstream of cytokine gene expression. […] This observation is significant in light of very recent studies showing that CD14 inhibition using anti-CD14 antibodies in an in vivo pig model of gram-negative sepsis and endotoxemia.^(42)
(§2) Macrophages (RAW264.7) were incubated in the absence or presence of sophorolipids (SL, 10 μg/ml, 30 min, room temperature), washed with phosphate-buffered saline (PBS), and anti-CD 14 or anti-TLR4 antibodies (Santa Cruz Biotechnology, 10 μg/ml, 30 min, room temperature). The cells were then washed with PBS and staining was performed using ABC staining system (Santa Cruz Biotechnology), according to manufacturer's instructions. The cells were then fixed with 1% formaldehyde and examined microscopically. A total of 200 cells were scored in triplicate for each determination, and results expressed as % of total cells counted.

A further data set concerns IL-8. The data set is described as follows: Cytokine responses in vitro: IL-8. The data set is classed as cell-based. The conditions noted are these: compared with the natural mixture responses, FIG. 5.
Data set [3] has as its system standard bacterial isolates. Kind of data set: Antibiotic activity, broth microdilution method. Type of data set: cell-based. The conditions noted are these: clinically relevant concentrations. For orientation: In broth dilution the organism is exposed to a series of concentrations in liquid medium.
The target in another data set is T2, CD14 (Mus musculus, UniProt P10810).
T2 construct: endogenous in cells; host or cells: RAW264.7 macrophages
T2 sequence (P10810 16-336): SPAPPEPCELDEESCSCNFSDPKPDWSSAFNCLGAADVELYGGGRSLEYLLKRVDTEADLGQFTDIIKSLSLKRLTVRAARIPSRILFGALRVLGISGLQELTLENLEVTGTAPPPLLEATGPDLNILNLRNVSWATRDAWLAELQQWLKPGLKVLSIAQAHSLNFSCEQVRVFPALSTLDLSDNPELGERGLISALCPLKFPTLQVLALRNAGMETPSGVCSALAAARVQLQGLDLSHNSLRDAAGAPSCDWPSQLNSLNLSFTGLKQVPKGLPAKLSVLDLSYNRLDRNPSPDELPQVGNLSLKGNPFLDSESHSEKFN
Kind of data set: Macrophage surface expression by antibody staining: CD14. The following applies: RAW264.7 macrophages, 10 μg/ml, 30 min. The data set is classed as cell-based. The procedure: as §1, §2

The next data set has as its system IL-1β. Kind of data set: RNase Protection Assay, splenocyte mRNA of CLP-septic rats: IL-1β. Type of data set: in vivo, rat. The conditions noted are these: 5 mg/kg; splenocytes at 6 hrs; percent control (CLP+vehicle) +/- SEM; P<0.05. The text has this: (§3) Data are expressed as percent control (CLP+vehicle)+/−SEM. Treatment groups were significant (p<0.05) compared with control using student's T test. CLP=cecal ligation and puncture; SL=sophorolipid

The subject of another data set is IL-1. The data set is described as follows: Cytokine responses in vitro: IL-1. The data set is classed as cell-based. The following applies: compared with the natural mixture responses, FIG. 5.
Data set [4] in a line: Dosage finding after CLP, tail vein IV. Type of data set: in vivo. The conditions noted are these: 24 mg/kg IV in 50% ethanol-PBS; possibly due to ethanol concentration. The procedure: Dosage To determine the optimum dose that can be administered to the rats, 3 different doses of Glyco 23, 6 mg/kg, 12 mg/kg and 24 mg/kg of rat body weight (in 50% ethanol-PBS) was administered using tail vein IV to 9 rats following the Cecal Ligation and Puncture (CLP). Control rats (n=3) were injected with 0.5 ml of PBS. […] Rats that received […] and 12 mg/kg doses survived after 24 hours. Blood was obtained before they were sacrificed the next day.

The subject of the next data set is TGF-β1. The data set is described as follows: RNase Protection Assay, splenocyte mRNA of CLP-septic rats: TGF-β1. Type of data set: in vivo, rat. The following applies: splenocytes at 6 hrs; percent control (CLP+vehicle) +/- SEM; P<0.05.
Description: as §3

Data set [5] has as its system galactosamine-sensitized LPS endotoxic shock. Kind of data set: Galactosamine-sensitized LPS endotoxic shock mortality. Type of data set: in vivo, mouse. The source says: Therefore, treatment after 2 hr can be compared to treatment after 24 hrs or later in conventional models.
Data set [6] deals with septic peritonitis via CLP. Kind of data set: CLP model of intra-abdominal sepsis: survival / mortality. The data set is classed as in vivo, rat. The following applies: same CLP model, FIG. 4. The procedure: Effect of Glyco 23 on mortality in intra-abdominal sepsis. […] The CLP model was chosen for its reproducible mortality rates and its ability to mimic fecal peritonitis.
This dose is well below the LD50 (6-7 gm/kg) of naturally occurring sophorolipids in rodents.^(40,41). Doses were given at the end of the surgery, and animals were followed for 36 hours. Kaplan Meier statistics were performed on survival.

Turning to `CC(CCCCCC/C=C\CCCCCCCC(=O)O)O[C@@H]1O[C@H](CO)[C@@H](O)[C@H](O)[C@H]1O[C@@H]1O[C@H](CO)[C@@H](O)[C@H](O)[C@H]1O` (relative stereo) [Sohorolipid Free Acid derivative, 17-L-[(2′-O-b-D-glucopyranosyl-b-D-glucopyranosyl)-oxy]-cis-9-octadecenoatede-acetylated free acid], the “difference between the inhibitory effects on serum IL-6” value in the data set on Interleukin-6 (IL-6) is listed as “No significant difference”. For the same compound, in data set [1], the “Survival % 3 hours post insult” value was 100% and the “Survival 24 Hs. post insult” value came to 90%.
As for Lipid A [reference compound], in data set [1], the “Survival % 3 hours post insult” value was 50% and the “Survival 24 Hs. post insult” value is reported as 32%.
Regarding `CCOC(=O)CCCCCCC/C=C\CCCCCCC(C)OC1O[C@H](CO)[C@@H](O)[C@H](O)[C@H]1OC1O[C@H](CO)[C@@H](O)[C@H](O)[C@H]1O` (relative stereo) [Glyco 23, Ethyl-17-L-[(2′-O-D-glucopyranosyl-D-glucopyranosyl)-oxy]-cis-9-octadecenoate], the “expression of genes upregulated more than 5 fold by LPS” value in [2] is recorded as “suppressed”. Moreover, the “surface expression of TLR4” value on TLR4 is reported as “interferes with surface expression”. Besides, the “IL-8 cytokine response suppression” value with IL-8 is given as “decreased”. In addition, the antibiotic activity result in data set [3] was “no significant antibiotic activity”. In addition, the “surface expression of CD14” value at CD14 is recorded as “interferes with surface expression”. The “Survival % 3 hours post insult” value in data set [1] was found to be 100%. Further, in data set [1], the “Survival 24 Hs. post insult” value turned out to be 100%. Moreover, the “reduction in IL-1β expression (mRNA)” value with IL-1β is 42.5%±4.7%. Moreover, the “IL-1 cytokine response suppression” value in the data set with IL-1 is given as “decreased”. Also, the “time to death of all rats” value in [4] is at most 2 h. Besides, the “increased expression of TGF-β1 (mRNA)” value in the data set with TGF-β1 came to 11.7±1.5%. The “Mortality (%)” value in data set [5] (LPS at 0 hs, Glyco at 0 hs, n = 9) came to 89%; in data set [5] (LPS at 0 hs, Glyco at 1.5 hs, n = 10), 30%; in data set [5] (LPS at 1.5 hs, Glyco at 0 hs, n = 10), 80%. In data set [5] (administered 2 hr after insult, versus positive control mice), the “decrease of endotoxin mortality” value turned out to be 56%. Also, the “Mortality rate reduced compared to vehicle” value in data set [6] is recorded as 37%.
